Experimental data: US12011432B2, “Method of modulating ribonucleotide reductase” (CASE WESTERN RESERVE UNIVERSITY, priority 2018, dated 2024)
pIC50: −log10 of the molar value.

Experiments:
[1] = test system: Human pancreatic cancer cells (Pancl); test: Cancer cell line growth inhibition assay (DNA content); format: cell-based; set-up: inhibition of growth of Pancl cells: dose or concentration left out as unconfirmed; details: for pIC50: Homo sapiens, Pancreatic cancer cell, 72 h, continuous exposure for three days; for pIC50 / activity/potency against growth of Pancl cells (in words): DNA content per well; for inhibition of growth of Pancl cells / activity/potency against growth of Pancl cells (in words): three days
Method: Growth inhibition assays were performed in the Translational Research Shared Resource of the Case Comprehensive Cancer Centre. Human pancreatic cancer cells (Pancl) were maintained in standard growth medium consisting of (RPMI1640+10% FBS+2 mM glutamine+100 U/mL penicillin, and […] streptomycin). Cells were monitored and shown to be negative for mycoplasma contamination using the Mycoplasma Detection kit (MycoAlert™, Lonza, Basel, Switzerland). For growth inhibition assays, cells were harvested by trypsinisation and seeded into 96-well tissue culture plates at 2500 cells/mL. The following day, triplicate wells were treated with an appropriate volume of 5x-inhibitor-containing medium. The cells were cultured for 3 additional days at 37° C. in a 5% CO2 humidified incubator. Cell growth was assessed by measuring total DNA content per well using an adaptation of the method of Labarca and Paigen.

blood progenitor cells = details: previously shown, cited from earlier work

pIC50 [1] | melting point | decrease in IC50 over the lead compound NSAH (TP8) ([1]; Pancl cells) [fold] | SMILES | inhibition of growth of Pancl cells [1] | activity/potency against growth of Pancl cells (in words) [1] | effectiveness against blood progenitor cells versus cancer cell lines (blood progenitor cells) | therapeutic index compared with gemcitabine (blood progenitor cells; same cell-cell comparison)
< 5.00 |  |  | O=C1Nc2ccccc2/C1=N\NC(=O)c1ccccc1O [TP1, (E)-2-Hydroxy-N′-(2-Oxoindolin-3-Ylidene)Benzohydrazide] | did not inhibit the growth |  |  | 
< 5.00 | 95.2 to 96.8 °C |  | COc1ccc(-c2cnc(-c3ccccc3O)s2)cc1 [TP9, 2-(5-(4-Methoxyphenyl)Thiazol-2-Yl)-Phenol] | did not inhibit the growth | ineffective |  | 
5.52 to 5.70 | 258.6 °C |  | O=C(N/N=C/c1c(O)ccc2ccccc12)c1ccc(-n2ccccc2=O)cc1 [TP10, (E)-N′-((2-Hydroxynaphthalen-1-Yl)Methylene)-4-(2-Oxopyridin-1(2H)-Yl)-Benzohydrazide] |  |  |  | 
> 5.82 | 228.3 °C (dec.) |  | COc1ccc(-c2ccoc2)c(/C=N/NC(=O)c2ccccc2O)c1O [TP4, (E)-N′-(6-(Furan-3-Yl)-2-Hydroxy-3-Methoxybenzylidene)-2-Hydroxybenzohydrazide] |  |  |  | 
> 5.82 | 257.9 to 259.4 °C |  | COc1ccc(-c2ccccc2)c(/C=N/NC(=O)c2ccccc2O)c1O [TP5, (E)-2-Hydroxy-N′-((3-Hydroxy-4-Methoxy-11,1′-Biphenyll-2-Yl)Methylene)-Benzohydrazide] |  |  |  | 
< 5.00 | 216.6 to 217.7 °C |  | O=C(NNC(=O)c1ccccc1O)c1cccnc1 [TP13, N′-(2-Hydroxybenzoyl)-Nicotinohydrazide] | did not inhibit the growth |  |  | 
< 5.00 | 202.8 to 204.5 °C |  | O=C(N/N=C/c1cccnc1)c1c(O)ccc2ccccc12 [TP12, (E)-2-Hydroxy-N′-(Pyridin-3-Ylmethylene)-1-Naphthohydrazide] | did not inhibit the growth |  |  | 
> 5.82 | 229.5 °C | > 2 | COc1ccc(-c2ccsc2)c(/C=N/NC(=O)c2ccccc2O)c1O [TP6, (E)-2-Hydroxy-N′-(2-Hydroxy-3-Methoxy-6-(Thiophen-3-Yl)Benzylidene)-Benzohydrazide] |  | greatest potency |  | 
5.52 to 5.70 | 273.5 to 274.9 °C |  | O=C(N/N=C/c1cc(-c2ccccc2)ccc1O)c1ccccc1O [TP2] |  |  |  | 
< 5.00 | 227.1 to 228.6 °C |  | O=C(NNC(=O)c1c(O)ccc2ccccc12)c1cccnc1 [TP11, N′-(2-Hydroxy-1-Naphthoyl)-Nicotinohydrazide] | did not inhibit the growth |  |  | 
5.52 to 5.70 | 282.9 to 284.6 °C |  | O=C(N/N=C/c1cc(-c2ccsc2)ccc1O)c1ccccc1O [TP3, (E)-2-Hydroxy-N′-(2-Hydroxy-5-(Thiophen-3-Yl)-Benzylidene)-Benzohydrazide] |  |  |  | 
< 5.00 | 229.5 °C |  | Nc1ncnc2c1ncn2-c1ccc(/C=N/NC(=O)c2ccccc2O)cc1 [TP7, (E)-N′-(4-(6-Amino-9H-Purin-9-Yl)Benzylidene)-2-Hydroxybenzohydrazide] | did not inhibit the growth |  |  | 

SMILES | pIC50 [1] | melting point | decrease in IC50 over the lead compound NSAH (TP8) ([1]; Pancl cells) [fold] | inhibition of growth of Pancl cells [1] | activity/potency against growth of Pancl cells (in words) [1] | effectiveness against blood progenitor cells versus cancer cell lines (blood progenitor cells) | therapeutic index compared with gemcitabine (blood progenitor cells; same cell-cell comparison)
O=C(N/N=C/c1c(O)ccc2ccccc12)c1ccccc1O [TP8, (E)-2-Hydroxy-N′-((2-Hydroxynaphthalen-1-Yl)Methylene)-Benzohydrazide] | > 5.82 | 223.8 °C |  |  |  | much less effective | higher therapeutic index than gemcitabine
